Measurements from PubChem BioAssay (NCI).
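Test compounds were applied to cells in 96-well plates for 48 hours at 5 doses. At the TGI there is no net growth.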

How the values were obtained:
Test in all cases: NCI-60 cell line screen, 48 h
[1] = tested on: U251 CNS
[2] = tested on: MDA-MB-231 breast
[3] = tested on: RPMI-8226 leukemia
[4] = tested on: HCT-116 colon
[5] = tested on: IGROV1 ovarian
[6] = tested on: HOP-92 NSCLC
[7] = tested on: NCI-H460 lung
[8] = tested on: A549 NSCLC
[9] = tested on: HOP-62 NSCLC
[10] = tested on: SF-268 CNS
[11] = tested on: OVCAR-4 ovarian
[12] = tested on: SW-620 colon
[13] = tested on: SK-OV-3 ovarian
[14] = tested on: OVCAR-8 ovarian
[15] = tested on: RXF 393 renal
[16] = tested on: SR leukemia
[17] = tested on: HCC-2998 colon

| SMILES | TGI [1] | TGI [2] | TGI [3] | TGI [4] | TGI [5] | TGI [6] | TGI [7] | TGI [8] | TGI [9] | TGI [10] | TGI [11] | TGI [12] | TGI [13] | TGI [14] | TGI [15] | TGI [16] | TGI [17] |
| --- | --- | --- | --- | --- | --- | --- | --- | --- | --- | --- | --- | --- | --- | --- | --- | --- | --- |
| Cc1ccc(O)c(C2=CC3=NNC(=O)C3C(c3cccc(Cl)c3)C2)c1 (centres undefined) | > 100 µM | > 100 µM | 75.9 µM | > 100 µM | > 100 µM | 96.1 µM | > 100 µM | > 100 µM | > 100 µM | > 100 µM | 44.3 µM | > 100 µM | > 100 µM | 77.3 µM | 9.62 µM | > 100 µM | 44.5 µM |
| CCOC(=O)C(=CNc1ccc(N(C2=NCC(C)S2)c2ccc(F)c(Cl)c2)cc1)C(=O)OCC (centres undefined) | 48.1 µM | 30.9 µM | 72.8 µM | 31.4 µM | 44.5 µM | 36.1 µM | 49.7 µM | 86.1 µM | 52 µM | 55.3 µM | 65.3 µM | 57.1 µM | 70.7 µM | 37.3 µM | 21.3 µM | 43.1 µM | 32 µM |
| Cc1ccc(S(=O)C[C@](NC(=O)OCc2ccccc2)(Sc2ccccc2)C(F)F)cc1 (some centres undefined) | 35.5 µM | 52.4 µM | 45 µM | 34.8 µM | 22.7 µM | 42.9 µM | 42.2 µM | > 100 µM | 86.9 µM | 63.4 µM | 41.4 µM | 40.6 µM | 36 µM | 48.5 µM | 79.5 µM | 30.7 µM | 35.9 µM |
| COc1ccc(-c2oc3cc(OC)c(OC)c(O)c3c(=O)c2OC)cc1 | > 100 µM | 50 µM | > 100 µM | > 100 µM | 56.8 µM | 33.8 µM | > 100 µM | > 100 µM | > 100 µM | 98.4 µM | > 100 µM | > 100 µM | > 100 µM | > 100 µM | 78.8 µM | > 100 µM | > 100 µM |
| O=C1/C(=C\c2ccc(Br)cc2)CCCc2ccccc21 | 31.2 µM | 42 µM | 48.8 µM | 24.8 µM | 34.4 µM | 39.8 µM | 34 µM | > 100 µM | > 100 µM | 37.1 µM | 26.3 µM | 43 µM | > 100 µM | 28.2 µM | 43.3 µM | 58 µM | 30.1 µM |
| C=C1C[C@@H](O)[C@@H](Br)C(C)(C)[C@@]12C=CC(=O)CC2 | > 100 µM | > 100 µM | > 100 µM | > 100 µM | > 48.3 µM | > 100 µM | > 100 µM | > 100 µM | > 100 µM | > 100 µM | > 100 µM | > 100 µM | > 100 µM | > 100 µM | > 100 µM | > 100 µM | > 100 µM |
| O=c1[nH]nc(-c2ccccc2)n1/N=C/c1cccc([N+](=O)[O-])c1 | > 100 µM | > 100 µM | > 100 µM | > 100 µM | > 100 µM | > 100 µM | > 100 µM | > 100 µM | > 100 µM | > 100 µM | > 100 µM | > 100 µM | > 100 µM | > 100 µM | > 100 µM | > 100 µM | > 100 µM |
| CCOP(=O)(OCC)/C(C#N)=C/c1ccccn1 | > 100 µM | > 100 µM | > 100 µM | > 100 µM | > 100 µM | > 100 µM | > 100 µM | > 100 µM | > 100 µM | > 100 µM | > 100 µM | > 100 µM | > 100 µM | > 100 µM | > 100 µM | > 100 µM | > 100 µM |
| O=[N+]([O-])C(/C(Cl)=C(\Cl)Br)=C(/Cl)SCc1ccccc1 | 18.5 µM | 7.96 µM | 5.42 µM | 7.11 µM | 13.1 µM | 5.34 µM | 30.5 µM | 33.5 µM | 37.5 µM | 9.76 µM | 11.4 µM | 4.61 µM | 33.7 µM | 8.13 µM | 4.85 µM | 13.4 µM | 25.1 µM |
| Cc1ccc(S(=O)(=O)CNC(=O)C(O)(O)C(F)(F)F)cc1 | > 100 µM | > 100 µM | > 100 µM | > 100 µM | > 100 µM | > 100 µM | > 100 µM | > 100 µM | > 100 µM | > 100 µM | > 100 µM | > 100 µM | > 100 µM | > 100 µM | > 100 µM | > 100 µM | > 100 µM |
| Cc1ccc(-c2c(-c3ccccc3)[nH]c(C)c2C(=O)ONC(=O)c2ccccc2)cc1 | 4.07 µM | 12.8 µM | 29.5 µM | 7.27 µM | 3.15 µM | 4.09 µM | 5.21 µM | 7.65 µM | 4.66 µM | 7.31 µM | 9.48 µM | 41.8 µM | 30 µM | 18.5 µM | 5.83 µM | 5.36 µM | 28.9 µM |
| CCc1ccc2[nH]c(O)c(C3=Nc4ccccc4C3=O)c2c1 | 38.2 µM | > 100 µM | > 100 µM | 35.4 µM | 20.1 µM | > 100 µM | > 100 µM | 59.7 µM | 41.4 µM | 90.6 µM | 61.3 µM | > 100 µM | 41.5 µM | 57 µM | 51.4 µM | 37.8 µM | 53.2 µM |
| O=C(c1ccccc1)N1C(=O)N(c2ccccc2)C(=Nc2ccccc2)C1=Nc1ccccc1 | > 100 µM | > 100 µM | > 100 µM | > 100 µM | > 100 µM | > 100 µM | > 100 µM | > 100 µM | > 100 µM | > 100 µM | > 100 µM | > 100 µM | > 100 µM | > 100 µM | > 100 µM | > 100 µM | > 100 µM |
| Cc1ccc2nc3n[nH]c(N)c3nc2c1 | > 100 µM | > 100 µM | > 100 µM | > 100 µM | > 100 µM | > 100 µM | > 100 µM | > 100 µM | > 100 µM | > 100 µM | > 100 µM | > 100 µM | > 100 µM | > 100 µM | > 100 µM | > 100 µM | > 100 µM |
| CC[C@@H](CCCCC1CC[C@H]2CC(=O)C[C@@H]12)OC (some centres undefined) | > 100 µM | > 100 µM | > 100 µM | > 100 µM | > 100 µM | > 100 µM | > 100 µM | > 100 µM | > 100 µM | > 100 µM | > 100 µM | > 100 µM | > 100 µM | > 100 µM | > 100 µM | > 100 µM | > 100 µM |
| COc1cc(/C=C2\C[C@H]3[C@@H]4CCC5=CC(=O)CC[C@]5(C)[C@H]4CC[C@]3(C)C2=O)cc(OC)c1OC | > 100 µM | > 100 µM | 9.7 µM | > 40.8 µM | > 100 µM | > 100 µM | > 100 µM | > 100 µM | > 66.9 µM | > 100 µM | > 59.7 µM | > 100 µM | > 100 µM | > 100 µM | > 100 µM | > 100 µM | > 100 µM |
| CC12CCCCC1=C(F)C(F)(F)S2 (centres undefined) | > 100 µM | > 100 µM | 37.7 µM | 58.5 µM | > 100 µM | > 67.9 µM | > 100 µM | > 100 µM | > 100 µM | > 100 µM | > 100 µM | > 73.7 µM | > 100 µM | 77.3 µM | > 51.8 µM | 28 µM | > 86.5 µM |
